This is an account of results in US9095138B2, “Isoxazoline insecticides” (E.I. du Pont de Nemours and Company, priority 2007, dated 2015).

Common to all, as to assay type: in vivo
The subject of data set [1] is diamondback moth (Plutella xylostella). The data set can be described thus: Test A: control of diamondback moth on radish plant, foliar spray. As to conditions: sprayed at 50 ppm; neonate larvae on radish; assessed after 6 days; replicated three times. In short, it runs like this: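 Radish plants 12–14 days old, pre-infested with about 50 neonate larvae, were sprayed with compound at 50 ppm in 10% acetone/water with 300 ppm X-77 surfactant, in three replicates. Units were held 6 days at 25 °C and 70% RH. Feeding damage was assessed visually and mortality was counted.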

In data set [2] the test system is fall armyworm (Spodoptera frugiperda). The data set can be described thus: Test B: control of fall armyworm on corn (maize) plant, foliar spray. As to conditions: sprayed at 50 ppm; 1-day-old larvae on corn; replicated three times. In short, it runs like this: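 Corn plants 4–5 days old were infested with 10–15 one-day-old fall armyworm larvae. They were then sprayed at 50 ppm in 10% acetone/water with 300 ppm non-ionic surfactant, three replicates. After 6 days at 25 °C and 70% RH, feeding damage was assessed visually and mortality rated.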

Data set [3] deals with western flower thrips (Frankliniella occidentalis). The data set can be described thus: Test E: control of western flower thrips on Soleil bean plant, contact and/or systemic. As to conditions: adult thrips, assessed after 6 days, replicated three times. In short, it runs like this: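 A 5-7 day old Soleil bean plant was sprayed with compound at 250 or 50 ppm in 10% acetone/water with 300 ppm X-77 surfactant, dried 1 hour, then infested with 22-27 adult thrips. After 6 days at 25° C., 45-55% relative humidity, mortality and plant damage were rated; three replicates.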

The structures appear in SMILES notation.

As to `C[C@@H](NC(=O)c1ccc(C2=NOC(c3cc(C(F)(F)F)cc(C(F)(F)F)c3)(C(F)(F)F)C2)c2ccccc12)C(=O)NCC1CC1(F)F` (some centres unmarked) [Compound 80], the “control efficacy (feeding damage or mortality): very good to excellent levels” value (“control efficacy” for short) in data set [1], in data set [2], in data set [3] (sprayed at 50 ppm) and in data set [3] (sprayed at 250 ppm) was 20% or less feeding damage or 80% or more mortality throughout.

With `O=C(CNC(=O)c1ccc(C2=NOC(c3cc(Cl)cc(OC(F)(F)F)c3)(C(F)(F)F)C2)c2ccccc12)NCC1CC1` (centres unmarked) [Compound 81], the “control efficacy” value in data set [1], in data set [2] and in data set [3] (sprayed at 50 ppm) was 20% or less feeding damage or 80% or more mortality each time.

Take `O=C(CNC(=O)c1ccc(C2=NOC(c3cc(Cl)cc(OC(F)(F)F)c3)(C(F)(F)F)C2)c2ccccc12)NC1CC1` (centres unmarked) [Compound 82]: the “control efficacy” value in data set [1], in data set [2] and in data set [3] (sprayed at 50 ppm) was 20% or less feeding damage or 80% or more mortality throughout.

`C[C@@H](NC(=O)c1ccc(C2=NOC(c3cc(Br)cc(C(F)(F)F)c3)(C(F)(F)F)C2)c2ccccc12)C(N)=O` (some centres unmarked) [Compound 83]: the “control efficacy” value in data set [1], in data set [2] and in data set [3] (sprayed at 50 ppm) was 20% or less feeding damage or 80% or more mortality in each case.

As to `O=C(CNC(=O)c1ccc(C2=NOC(c3cc(Cl)cc(OCC(F)(F)F)c3)(C(F)(F)F)C2)c2ccccc12)NCC1CC1` (centres unmarked) [Compound 84], the “control efficacy” value in data set [1], in data set [2] and in data set [3] (sprayed at 50 ppm) was 20% or less feeding damage or 80% or more mortality each time.

Consider `O=C(CNC(=O)c1ccc(C2=NOC(c3cc(Cl)cc(OCC(F)(F)F)c3)(C(F)(F)F)C2)c2ccccc12)NC1CC1` (centres unmarked) [Compound 85], for which the “control efficacy” value in data set [1], in data set [2] and in data set [3] (sprayed at 50 ppm) was 20% or less feeding damage or 80% or more mortality in each case.

In the case of `CC[C@@H](NC(=O)c1ccc(C2=NOC(c3cc(Cl)cc(C(F)(F)F)c3)(C(F)(F)F)C2)c2ccccc12)C(N)=O` (some centres unmarked) [Compound 86], the “control efficacy” value in data set [1], in data set [2] and in data set [3] (sprayed at 50 ppm) was 20% or less feeding damage or 80% or more mortality throughout.

Consider `CC(C)[C@@H](NC(=O)c1ccc(C2=NOC(c3cc(Cl)cc(C(F)(F)F)c3)(C(F)(F)F)C2)c2ccccc12)C(N)=O` (some centres unmarked) [Compound 87], for which the “control efficacy” value in data set [1], in data set [2] and in data set [3] (sprayed at 50 ppm) was 20% or less feeding damage or 80% or more mortality in each case.

Take `O=C(NCC(=O)N1CCC(F)(F)C1)c1ccc(C2=NOC(c3cc(Cl)cc(Cl)c3)(C(F)(F)F)C2)c2ccccc12` (centres unmarked) [Compound 90]: the “control efficacy” value in data set [1], in data set [2], in data set [3] (sprayed at 50 ppm) and in data set [3] (sprayed at 250 ppm) was 20% or less feeding damage or 80% or more mortality in each case.

As to `CS(=O)(CCNC(=O)c1ccc(C2=NOC(c3cc(Cl)cc(Cl)c3)(C(F)(F)F)C2)c2ccccc12)=NC(=O)C(F)(F)F` (centres unmarked) [Compound 93], the “control efficacy” value in data set [1], in data set [2], in data set [3] (sprayed at 50 ppm) and in data set [3] (sprayed at 250 ppm) was 20% or less feeding damage or 80% or more mortality throughout.

For `CS(=N)(=O)CCNC(=O)c1ccc(C2=NOC(c3cc(Cl)cc(Cl)c3)(C(F)(F)F)C2)c2ccccc12` (centres unmarked) [Compound 94], the “control efficacy” value in data set [1], in data set [2], in data set [3] (sprayed at 50 ppm) and in data set [3] (sprayed at 250 ppm) was 20% or less feeding damage or 80% or more mortality each time.

On to `CNC(=O)[C@H]1CCCN1C(=O)c1ccc(C2=NOC(c3cc(Cl)cc(Cl)c3)(C(F)(F)F)C2)c2ccccc12` (some centres unmarked) [Compound 104], for which the “control efficacy” value in data set [1], in data set [2], in data set [3] (sprayed at 50 ppm) and in data set [3] (sprayed at 250 ppm) was 20% or less feeding damage or 80% or more mortality each time.
